Test results reported in USRE39530E1, “3-amino-3-arylpropan-1-ol-compounds, their preparation and use” (Gruenenthal GmbH, priority 1999, dated 2007).

Columns and labels:
[1] = tested on: phenylquinone-induced writhing; assay: Phenylquinone-induced writhing test on mice; type: in vivo; details: male NMRI mice, 10 min before phenylquinone i.p., writhing counted 5 to 20 min after phenylquinone
Experimental: The analgesic activity was investigated on phenylquinone-induced writhing in mice (modified by I. C. Hendershot and J. Forsaith (1959) J. Pharmacol. Exp. Ther. 125, 237-240). Male NMRI mice weighing 25 to 30 g were used for this. Groups of 10 animals per dose of substance received 0.3 ml/mouse of a 0.02% aqueous solution of phenylquinone (phenylbenzoquinone), Sigma, Deisenhofen; preparation of the solution with addition of 5% ethanol and storage in a water bath at 45° C.) as an intraperitoneal administration 10 minutes after intravenous administration of the test substances. The animals were placed individually in observation cages. The number of pain-induced extension movements (so-called writhing reactions=straightening of the body with stretching out of the hind extremities) 5 to 20 minutes after the administration of phenylquinone was counted by means of a push-button counter. Animals which receive only physiological saline solution were also run as a control. All the substances were tested in the standard dosage of 10 mg/kg. The percentage inhibition (% inhibition) of the writhing reaction by a substance was calculated in accordance with the following equation: [formula] For some substances, the ED50 values with 95% confidence limits of the writhing reaction were calculated from the dose-dependent decrease in the writhing reactions compared with phenylquinone control groups investigated in parallel by means of regression analysis (evaluation program of Martens EDV Service, Eckental).

[2] = tested on: benzothiazepine bonding site of the L-type calcium channel; assay: Bonding investigations on the L calcium channel, benzothiazepine bonding site (diltiazem bonding); type: binding; details: rat cerebrocortex membranes; for Diltiazem bonding at 10 μM: percentage inhibition at 10 μM test substance, [3H]-cis-(+)-diltiazem 5 nM
Experimental: Benzothiazepine Bonding Site (diltiazem bonding)
The biological membrane material was isolated from the cerebrocortex of the rat. [^3H]-cis-(+)-Diltiazem (5 nM in the batch) was used as the ligand. Incubation for 20 minutes at 25° C. The radioactivity measured in the presence of (+)-diltiazem (10^−6 M in the batch) is defined as non-specific bonding. At the end of the incubation, the non-bonded content of radioactive ligand is removed with the aid of a filtration process over Whatman glass fiber GF/B membranes. After a washing process, the membranes are then measured on a β-counter. The method has been established in accordance with the publication of Schoemaker and Langer (H. Schoemaker and S. Z. Langer (1985) Eur. J. Pharmacol. 111, 273-277).
(§1) In addition to the percentage inhibition of the test systems at fixed test substance concentrations (10 μM in the batch), dose-dependencies were investigated. In this investigation, IC50 values are obtained, and these can be converted by the “Cheng-Prusoff equation” (Y. C. Cheng and W. H. Prusoff (1973) Biochem. Pharmacol. 22, 3099-3108) into inhibitor constants (Ki). The IC50 values were obtained with the aid of the “Figure P” computer program (version 6.0, Biosoft, Cambridge, England). Km values were calculated by the method of Lineweaver and Burk (H. Lineweaver and D. Burk (1934) J. Am. Chem. Soc. 56, 658-666). The “Ligand” computer program (version 4, Biosoft, England) is used to obtain KD values.

[3] = tested on: bonding site 2 of the sodium channel (BTX bonding site); assay: Bonding investigations on the sodium channel, bonding site 2 (BTX bonding); type: binding; details: rat cerebrocortex synaptosomes; for BTX bonding at 10 μM: percentage inhibition at 10 μM test substance, [3H]-batrachotoxin A20 α-benzoate 10 nM
Experimental: Bonding Site 2 (BTX bonding)
Bonding site 2 of the sodium channel is the so-called batrachotoxin (BTX) bonding site. [^3H]-Batrachotoxin A20 α-benzoate (10 nM in the batch) was employed as the ligand. These ion channel particles (synaptosomes) were concentrated out of the rat cerebrocortex by the method of Gray and Whittaker (E. G. Gray and V. P. Whittaker (1962) J. Anat. 76, 79-88). The radioactivity measured in the presence of veratridin (0.3 mM in the batch) is defined as non-specific bonding. Incubation at 37° C. for 120 min. The assay conditions were implemented in accordance with the publication of Pauwels, Leysen and Laduron (P. J. Pauwels, J. E. Leysen and P. M. Laduron (1986) Eur. J. Pharmacol. 124, 291-298).
as §1

| Molecule | % Inhibition of the writhing reaction at 10 mg/kg intravenously [1] [%] | Diltiazem bonding at 10 μM [2] [%] | BTX bonding at 10 μM [3] [%] | Kd ([3]; radioligand, means±SEM, N=3, read-out: KD value for this bonding site) [nM] | Kd ([2]; radioligand, means±SEM, N=3, read-out: KD value for this high-affinity bonding site) [nM] |
| --- | --- | --- | --- | --- | --- |
| Cc1ccccc1COC1CCCCC1C(c1ccccc1)N(C)C.Cl (stereo not shown) [Example 1, Dimethyl-{[2-(2-methyl-benzyloxy)cyclohexyl]phenylmethyl}-amine hydrochloride] | 85 | 82 | 99 | – | – |
| CN(C)C(c1ccccc1)C1CCCCC1OC(=O)c1ccc(C(F)(F)F)cc1.Cl (stereo not shown) [Example 2, [2-(Dimethylaminophenylmethyl)cyclohexyl]-4-trifluoromethylbenzoate hydrochloride] | 48 | – | 98 | – | – |
| COc1ccc(C(=O)OC2CCCCC2C(c2ccccc2)N(C)C)cc1.Cl (stereo not shown) [Example 3, [2-(Dimethylaminophenylmethyl)cyclohexyl]4-methoxybenzoate hydrochloride] | 43 | 65 | 89 | – | – |
| CN(C)C(c1ccccc1Cl)C1CCCCC1OCc1ccccc1Cl.Cl (stereo not shown) [Example 4, {[2-(2-Chlorobenzyloxy)cyclohexyl]-(2-chlorophenyl)methyl}-dimethylamine hydrochloride] | 32 | 73 | 92 | – | – |
| CN(C)C(c1ccccc1)C1CCCCC1OCc1cccc(F)c1.Cl (stereo not shown) [Example 5, {[2-(3-Fluorobenzyloxy)cyclohexyl]-phenylmethyl}dimethylamine hydrochloride] | 74 | 89 | 98 | – | – |
| CN(C)C(c1ccccc1)C1CCCCC1OCc1ccc(F)cc1.Cl (stereo not shown) [Example 6, {[2-(4-Fluorobenzyloxy)cyclohexyl]-phenylmethyl}dimethylamine hydrochloride] | 68 | 86 | 97 | – | – |
| [^3H]-Batrachotoxin A20 α-benzoate [reference compound] | – | – | – | 24.6 ± 1.56 | – |
| [^3H]-cis-(+)-Diltiazem [reference compound] | – | – | – | – | 4.1 ± 0.75 |
